Literature values, collected in patent publication US20250057810A1, “AQUEOUS MELATONIN FORMULATION” (AGB-Pharma AB, priority 2021, published 2025).

Conditions: in vivo

blood levels returning to normal daytime levels after administration: 6 to 8 h
Structure (SMILES): COc1ccc2[nH]cc(CCNC(C)=O)c2c1 [melatonin, N-acetyl-5-methoxytryptamine]
